According to US9980943B2, “Methods of treating muscular dystrophy” (BOARD OF REGENTS OF THE NEVADA SYSTEM OF HIGHER EDUCATION, …, priority 2013, dated 2018):

Legend:
Format in all cases: cell-based, mouse
[1] = test system: α7 integrin (LacZ reporter in α7+/LacZ myotubes); assay: Myotube α7 integrin FDG assay (Burkin assay in myotubes, 96-well); details: for Burkin Assay in Myotubes, value relative to DMSO: SU9516 analogs, 96-well, N=3-6
[2] = test system: β-galactosidase in CMV-LacZ C2C12 myotubes; assay: CMV-LacZ secondary screen in C2C12 myotubes (β-Gal stabilizing assay); details: for CMV-LACZ in Myotubes, signal relative to DMSO: C2C12 CMV-LacZ myotubes, fold relative to DMSO; for CMV-LACZ in Myotubes, value relative to DMSO: SU9516 analogs, C2C12 CMV-LacZ, N=2
Outline: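 CMV-LacZ C2C12 line (clonal, FDG-screened); myoblasts/myotubes dosed 0.5–40 μM (0.5, 1, 5, 10, 20, 40 μM); n=2 per point; β-gal stabilization read-out.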

[3] = test system: β-galactosidase in CMV-LacZ C2C12 myoblasts; assay: CMV-LacZ secondary screen in C2C12 myoblasts (β-Gal stabilizing assay); details: for CMV-LACZ in Myoblasts (β-galactosidase activity relative to DMSO): CMV-LacZ C2C12 myoblasts; for CMV-LACZ in Myoblasts, value relative to DMSO: SU9516 analogs, C2C12 CMV-LacZ, N=2
Outline: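 First, C2C12 myoblasts were transfected with a linearized CMV-LACZ vector and clonal lines selected by FDG β-gal assay. Then cells were exposed to compounds at 0.5, 1, 5, 10, 20 and 40 μM in 96-well format, two replicates each, and β-gal measured.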

[4] = test system: α7 integrin (LacZ reporter in α7βgal+/− myoblasts); assay: Myoblast α7+/LacZ integrin FDG assay (Burkin assay in myoblasts, 96-well); details: 96-well; for Burkin Assay in Myoblasts, signal relative to DMSO: α7+/LacZ myoblasts; for Burkin Assay in Myoblasts, value relative to DMSO: SU9516 analogs, N=3-6

## CCN(CC(=O)NCc1cccs1)C(=O)COc1ccc(C(N)=O)cc1 [MLS002163101-01]
[1]; 0.5 uM
  Burkin Assay in Myotubes, α7 integrin LacZ reporter signal relative to DMSO: 1.045
[1]; 1 uM
  Burkin Assay in Myotubes, α7 integrin LacZ reporter signal relative to DMSO: 0.9075
[1]; 5 uM
  Burkin Assay in Myotubes, α7 integrin LacZ reporter signal relative to DMSO: 1.101
[1]; 10 uM
  Burkin Assay in Myotubes, α7 integrin LacZ reporter signal relative to DMSO: 1.302
[1]; 20 uM
  Burkin Assay in Myotubes, α7 integrin LacZ reporter signal relative to DMSO: 0.7782
[1]; 40 uM
  Burkin Assay in Myotubes, α7 integrin LacZ reporter signal relative to DMSO: 0.9761
[2]; 0.5 uM
  CMV-LACZ in Myotubes, signal relative to DMSO: 1.0533
[2]; 1 uM
  CMV-LACZ in Myotubes, signal relative to DMSO: 1.1400
[2]; 5 uM
  CMV-LACZ in Myotubes, signal relative to DMSO: 0.8302
[2]; 10 uM
  CMV-LACZ in Myotubes, signal relative to DMSO: 0.8407
[2]; 20 uM
  CMV-LACZ in Myotubes, signal relative to DMSO: 0.9212
[2]; 40 uM
  CMV-LACZ in Myotubes, signal relative to DMSO: 1.5447
[3]; 0.5 uM
  CMV-LACZ in Myoblasts (β-galactosidase activity relative to DMSO): 0.9991
[3]; 1 uM
  CMV-LACZ in Myoblasts (β-galactosidase activity relative to DMSO): 1.0317
[3]; 5 uM
  CMV-LACZ in Myoblasts (β-galactosidase activity relative to DMSO): 1.0262
[3]; 10 uM
  CMV-LACZ in Myoblasts (β-galactosidase activity relative to DMSO): 1.0313
[3]; 20 uM
  CMV-LACZ in Myoblasts (β-galactosidase activity relative to DMSO): 0.9644
[3]; 40 uM
  CMV-LACZ in Myoblasts (β-galactosidase activity relative to DMSO): 1.1556
[4]; 0.5 uM
  Burkin Assay in Myoblasts, signal relative to DMSO: 0.9552
[4]; 1 uM
  Burkin Assay in Myoblasts, signal relative to DMSO: 0.9442
[4]; 5 uM
  Burkin Assay in Myoblasts, signal relative to DMSO: 0.9699
[4]; 10 uM
  Burkin Assay in Myoblasts, signal relative to DMSO: 1.251
[4]; 20 uM
  Burkin Assay in Myoblasts, signal relative to DMSO: 0.9457
[4]; 40 uM
  Burkin Assay in Myoblasts, signal relative to DMSO: 0.9775

## Cn1cc(CN2CCC(C(=O)Nc3cccc(-c4cscn4)c3)CC2)cn1 [MLS001105912-01]
[1]; 0.5 uM
  Burkin Assay in Myotubes, α7 integrin LacZ reporter signal relative to DMSO: 0.9483
[1]; 1 uM
  Burkin Assay in Myotubes, α7 integrin LacZ reporter signal relative to DMSO: 1.061
[1]; 5 uM
  Burkin Assay in Myotubes, α7 integrin LacZ reporter signal relative to DMSO: 0.9467
[1]; 10 uM
  Burkin Assay in Myotubes, α7 integrin LacZ reporter signal relative to DMSO: 1.1322
[1]; 20 uM
  Burkin Assay in Myotubes, α7 integrin LacZ reporter signal relative to DMSO: 0.8299
[1]; 40 uM
  Burkin Assay in Myotubes, α7 integrin LacZ reporter signal relative to DMSO: 1.003
[2]; 0.5 uM
  CMV-LACZ in Myotubes, signal relative to DMSO: 1.1391
[2]; 1 uM
  CMV-LACZ in Myotubes, signal relative to DMSO: 0.9618
[2]; 5 uM
  CMV-LACZ in Myotubes, signal relative to DMSO: 0.9313
[2]; 10 uM
  CMV-LACZ in Myotubes, signal relative to DMSO: 1.0857
[2]; 20 uM
  CMV-LACZ in Myotubes, signal relative to DMSO: 1.1910
[2]; 40 uM
  CMV-LACZ in Myotubes, signal relative to DMSO: 1.8130
[3]; 0.5 uM
  CMV-LACZ in Myoblasts (β-galactosidase activity relative to DMSO): 1.0725
[3]; 1 uM
  CMV-LACZ in Myoblasts (β-galactosidase activity relative to DMSO): 1.0321
[3]; 5 uM
  CMV-LACZ in Myoblasts (β-galactosidase activity relative to DMSO): 1.0003
[3]; 10 uM
  CMV-LACZ in Myoblasts (β-galactosidase activity relative to DMSO): 0.9597
[3]; 20 uM
  CMV-LACZ in Myoblasts (β-galactosidase activity relative to DMSO): 0.5323
[3]; 40 uM
  CMV-LACZ in Myoblasts (β-galactosidase activity relative to DMSO): 0.3873
[4]; 0.5 uM
  Burkin Assay in Myoblasts, signal relative to DMSO: 1.162
[4]; 1 uM
  Burkin Assay in Myoblasts, signal relative to DMSO: 1.057
[4]; 5 uM
  Burkin Assay in Myoblasts, signal relative to DMSO: 1.029
[4]; 10 uM
  Burkin Assay in Myoblasts, signal relative to DMSO: 1.246
[4]; 20 uM
  Burkin Assay in Myoblasts, signal relative to DMSO: 0.6025
[4]; 40 uM
  Burkin Assay in Myoblasts, signal relative to DMSO: 0.4631

## COc1ccc(C(=O)/C=C2/C(=O)Nc3ccccc32)cc1OC [MLS001163860-01]
[1]; 0.5 uM
  Burkin Assay in Myotubes, value relative to DMSO: 1.009
[1]; 1 uM
  Burkin Assay in Myotubes, value relative to DMSO: 0.9404
[1]; 5 uM
  Burkin Assay in Myotubes, value relative to DMSO: 0.9223
[1]; 10 uM
  Burkin Assay in Myotubes, value relative to DMSO: 1.138
[1]; 20 uM
  Burkin Assay in Myotubes, value relative to DMSO: 0.862
[1]; 40 uM
  Burkin Assay in Myotubes, value relative to DMSO: 1.209
[2]; 0.5 uM
  CMV-LACZ in Myotubes, value relative to DMSO: 1.0352
[2]; 1 uM
  CMV-LACZ in Myotubes, value relative to DMSO: 1.1562
[2]; 5 uM
  CMV-LACZ in Myotubes, value relative to DMSO: 1.1250
[2]; 10 uM
  CMV-LACZ in Myotubes, value relative to DMSO: 1.2757
[2]; 20 uM
  CMV-LACZ in Myotubes, value relative to DMSO: 1.3880
[2]; 40 uM
  CMV-LACZ in Myotubes, value relative to DMSO: 1.4490
[3]; 0.5 uM
  CMV-LACZ in Myoblasts, value relative to DMSO: 0.9350
[3]; 1 uM
  CMV-LACZ in Myoblasts, value relative to DMSO: 0.8230
[3]; 5 uM
  CMV-LACZ in Myoblasts, value relative to DMSO: 0.9610
[3]; 10 uM
  CMV-LACZ in Myoblasts, value relative to DMSO: 1.1417
[3]; 20 uM
  CMV-LACZ in Myoblasts, value relative to DMSO: 0.3425
[3]; 40 uM
  CMV-LACZ in Myoblasts, value relative to DMSO: 0.6488
[4]; 0.5 uM
  Burkin Assay in Myoblasts, value relative to DMSO: 0.9494
[4]; 1 uM
  Burkin Assay in Myoblasts, value relative to DMSO: 0.8457
[4]; 5 uM
  Burkin Assay in Myoblasts, value relative to DMSO: 0.5793
[4]; 10 uM
  Burkin Assay in Myoblasts, value relative to DMSO: 0.4922
[4]; 20 uM
  Burkin Assay in Myoblasts, value relative to DMSO: 0.1722
[4]; 40 uM
  Burkin Assay in Myoblasts, value relative to DMSO: 0.2347

## O=C1Nc2ccccc2/C1=C/c1cccnc1 [MLS000682748-01]
[1]; 0.5 uM
  Burkin Assay in Myotubes, value relative to DMSO: 0.9801
[1]; 1 uM
  Burkin Assay in Myotubes, value relative to DMSO: 1.211
[1]; 5 uM
  Burkin Assay in Myotubes, value relative to DMSO: 1.147
[1]; 10 uM
  Burkin Assay in Myotubes, value relative to DMSO: 1.085
[1]; 20 uM
  Burkin Assay in Myotubes, value relative to DMSO: 0.743
[1]; 40 uM
  Burkin Assay in Myotubes, value relative to DMSO: 0.6206
[2]; 0.5 uM
  CMV-LACZ in Myotubes, value relative to DMSO: 0.9356
[2]; 1 uM
  CMV-LACZ in Myotubes, value relative to DMSO: 0.8459
[2]; 5 uM
  CMV-LACZ in Myotubes, value relative to DMSO: 0.8790
[2]; 10 uM
  CMV-LACZ in Myotubes, value relative to DMSO: 0.9205
[2]; 20 uM
  CMV-LACZ in Myotubes, value relative to DMSO: 1.1753
[2]; 40 uM
  CMV-LACZ in Myotubes, value relative to DMSO: 1.1071
[3]; 0.5 uM
  CMV-LACZ in Myoblasts, value relative to DMSO: 0.9075
[3]; 1 uM
  CMV-LACZ in Myoblasts, value relative to DMSO: 0.9666
[3]; 5 uM
  CMV-LACZ in Myoblasts, value relative to DMSO: 1.0215
[3]; 10 uM
  CMV-LACZ in Myoblasts, value relative to DMSO: 0.9959
[3]; 20 uM
  CMV-LACZ in Myoblasts, value relative to DMSO: 0.3893
[3]; 40 uM
  CMV-LACZ in Myoblasts, value relative to DMSO: 0.2419
[4]; 0.5 uM
  Burkin Assay in Myoblasts, value relative to DMSO: 1.259
[4]; 1 uM
  Burkin Assay in Myoblasts, value relative to DMSO: 1.162
[4]; 5 uM
  Burkin Assay in Myoblasts, value relative to DMSO: 0.8923
[4]; 10 uM
  Burkin Assay in Myoblasts, value relative to DMSO: 0.765
[4]; 20 uM
  Burkin Assay in Myoblasts, value relative to DMSO: 0.4669
[4]; 40 uM
  Burkin Assay in Myoblasts, value relative to DMSO: 0.2472

## COC(=O)c1ccccc1NC(=O)CSc1nc(O)c(-c2ccccc2)c(=O)[nH]1 [MLS000621451-01]
[1]; 0.5 uM
  Burkin Assay in Myotubes, α7 integrin LacZ reporter signal relative to DMSO: 0.9471
[1]; 1 uM
  Burkin Assay in Myotubes, α7 integrin LacZ reporter signal relative to DMSO: 0.8932
[1]; 5 uM
  Burkin Assay in Myotubes, α7 integrin LacZ reporter signal relative to DMSO: 0.9254
[1]; 10 uM
  Burkin Assay in Myotubes, α7 integrin LacZ reporter signal relative to DMSO: 1.071
[1]; 20 uM
  Burkin Assay in Myotubes, α7 integrin LacZ reporter signal relative to DMSO: 0.8327
[1]; 40 uM
  Burkin Assay in Myotubes, α7 integrin LacZ reporter signal relative to DMSO: 1.024
[2]; 0.5 uM
  CMV-LACZ in Myotubes, signal relative to DMSO: 1.1114
[2]; 1 uM
  CMV-LACZ in Myotubes, signal relative to DMSO: 0.9295
[2]; 5 uM
  CMV-LACZ in Myotubes, signal relative to DMSO: 1.0177
[2]; 10 uM
  CMV-LACZ in Myotubes, signal relative to DMSO: 1.1398
[2]; 20 uM
  CMV-LACZ in Myotubes, signal relative to DMSO: 0.9853
[2]; 40 uM
  CMV-LACZ in Myotubes, signal relative to DMSO: 0.9695
[3]; 0.5 uM
  CMV-LACZ in Myoblasts (β-galactosidase activity relative to DMSO): 1.0388
[3]; 1 uM
  CMV-LACZ in Myoblasts (β-galactosidase activity relative to DMSO): 1.1579
[3]; 5 uM
  CMV-LACZ in Myoblasts (β-galactosidase activity relative to DMSO): 0.9255
[3]; 10 uM
  CMV-LACZ in Myoblasts (β-galactosidase activity relative to DMSO): 1.3023
[3]; 20 uM
  CMV-LACZ in Myoblasts (β-galactosidase activity relative to DMSO): 1.2493
[3]; 40 uM
  CMV-LACZ in Myoblasts (β-galactosidase activity relative to DMSO): 1.1926
[4]; 0.5 uM
  Burkin Assay in Myoblasts, signal relative to DMSO: 1.065
[4]; 1 uM
  Burkin Assay in Myoblasts, signal relative to DMSO: 1.018
[4]; 5 uM
  Burkin Assay in Myoblasts, signal relative to DMSO: 1.066
[4]; 10 uM
  Burkin Assay in Myoblasts, signal relative to DMSO: 1.114
[4]; 20 uM
  Burkin Assay in Myoblasts, signal relative to DMSO: 1.0713
[4]; 40 uM
  Burkin Assay in Myoblasts, signal relative to DMSO: 1.088
